Laboratory results published in patent publication US9888679B2, “Protection of progenitor cells and regulation of their differentiation” (Proteobioactives Pty Ltd, priority 2007, dated 2018).

What was measured:
[1] = tested on: murine progenitor cells (C3H10T1-2); test: Proteoglycan synthesis in micromass cultures, 6 and 9 days; format: cell-based; conditions: FIG. 16
Procedure: FIG. 16. A bar graph showing the concentration dependent effects of PPS on proteoglycan synthesis by murine progenitor cells (C3H10T1-2) in micromass cultures for 6 days and 9 days. PPS was included in the media (Ham's F12+10% FCS) and was changed every 48 hours. ^35S—SO4 was added 24 hours before culture termination. Synthesis normalized to DNA content. * P<0.05, **P<0.005, ***P<0.0005 relative to controls.
The technique used was based on that described by (Denker A E, Haas A R, Nicoll S B and Tuan R S. Chondrogenic differentiation of murine C3H10T1/2 multipotential progenitor cells: I. Stimulation by bone morphogenetic protein-2 in high density micromass cultures. Differentiation (1999); 64: 67-76). Briefly murine Progenitor cells (cell lines C3H10T1/2 or ATDC5) purchased from RIKEN Cell Bank (Tsukuba, Japan) or human immunoselected Stro-1+ Progenitor cells (Mesoblast Ltd, Melbourne, Australia) Ten microlitres (10 μl) of a suspension of the progenitor cells (1×10^7 cells/ml in Ham's F12 medium+10% FBS) were applied to individual wells of a 24-well plates. […] The radioactivity of ^35S—SO4 incorporated the ^35S-GAG-CPC complexes was measured by scintillation counting. […]

[2] = tested on: Primary human progenitor cells; test: Progenitor cell proliferation, WST-1 assay; format: cell-based; conditions: FIG. 4
Procedure: (§1) FIG. 4. The Effects of Pentosan Polysulfate (PPS) on Human Progenitor cell Proliferation. Primary human progenitor cells were cultured in 24 well plates in growth media supplemented with PPS at the indicated concentrations. At various time intervals (day 1, 3, 6), the growth media was removed and replaced with phenol red free media containing the tetrazolium salt WST-1 for 2 hours at 37° C./5% CO2. WST-1 is cleaved by mitochondrial dehydrogenase in viable cells to produce a formazan dye that can be detected using an ELISA plate reader at a wavelength of 450 nm. Absorbance at 450 nm for each time point is shown for all concentrations of PPS.
FIG. 20. […] At various time intervals (day 3 & 5), the growth media was removed and replaced with phenol red free media containing the tetrazolium salt WST-1 for 2 hours at 37° C./5% CO2. Absorbance at 450 nm for each time point is shown for all concentrations of PPS and HA.
as §1, with “Primary” for “FIG. 4. The Effects of Pentosan Polysulfate (PPS) on Human Progenitor cell Proliferation. Primary”

Smad 2 = test: RT-PCR gene expression, 2 day monolayer ATDC5 cultures; format: cell-based, murine; conditions: ATDC5 cells; concentrations shown to stimulate PG synthesis; FIG. 26
Description: (§2) FIG. 26. RT-PCR detection of gene expression of Runx2 and the transduction proteins, Smad 2 and Smad 4 and the housekeeping gene NADPH expressed by Murine ATDC5 progenitor cells cultured in the presence and absence of rhNC4 (Batch PBA-1209P) and PPS for 2 days in monolayer cultures.
(§3) Total RNA was isolated from Progenitor cells according to the manufacturer's instructions for the Aurum total RNA mini kit (Bio-Rad, USA). The RNA was reverse transcribed with RevertAid™ H Minus First Stand cDNA Synthesis Kit (Fermentas, USA). PCR products were transferred to an agarose gel, and visualized by ethidium bromide staining, and integrated densities calculated using Scion image analysis software, normalized to the house-keeping gene Glyceraldehydes-3-phosphate dehydrogenase (GAPDH) to permit semi-quantitative comparisons in mRNA levels. (L. Marchuk, P. Sciore, C. Reno, C. B. Frank, D. A. Hart. Postmortem stability of total RNA isolated from rabbit ligament, tendon and cartilage, Biochim Biophys Acta. 1379 (1998) 171-177. R. Boykiw, P. Sciore, C. Reno, L. Marchuk, C. B. Frank, D. A. Hart. Altered levels of extracellular matrix molecule mRNA in healing rabbit ligaments, Matrix Biol. 17 (1998) 371-378.)

Smad 4 = test: as above; format: cell-based, murine; conditions: ATDC5 cells; concentrations shown to stimulate PG synthesis; FIG. 26
Description: as §2, §3

## pentosan polysulfate [PPS]
[1]; 1-20 micrograms/mL, micromass
  uptake of 35S into newly synthesized PG: Highly significant stimulation
[1]; 1 microgram/mL, nine days in micromass cultures
  stimulation of proteoglycan synthesis: 100%
[2]; 1-5 micrograms/mL, monolayer
  cell division (WST-1 cleavage assay): Marked stimulation of cell division
[2]; day 6, PPS in excess of 1 μg/ml, p<0.01, ANOVA
  proliferation (WST-1, absorbance at 450 nm): statistically significant increase in proliferation
Smad 2
  expression of Smad 2: up regulation
Smad 4
  expression of Smad 4: up regulation
